# Earlier results in patent publication US20260248129A1, “SPRAYABLE SUBSTANCES FOR PHOTOSYNTHESIS ENHANCEMENT” (Sensei Ag Holdings, Inc., priority 2023, published 2026).
# Where two headings read alike, the source gives them in different places.
# Legend:
# [1] = not given; remark: listed apart in the source
# [2] = ethanol, methanol, hexane, ether, and a variety of other solvents
water solubility (water),SMILES,solubility in water (in words) (water),water solubility (water at 25° C.),stability under light (in words) [1],solubility in organic solvents (in words) [2]
,"c1ccc2cc3ccccc3cc2c1 [anthracene, Anthracene]",slightly soluble,0.044 mg/L,does eventually degrade under light,very soluble
0.17 mg/100 mL,"O=c1ccc2ccccc2o1 [coumarin, Coumarin]",,,,
